Converted amounts (≈) assume the structure as drawn.
Assay: Solubility in water, shaken five days, HPLC
Assay type: physicochemical
Settings: thermodynamic from solid, room temperature (25° C.)
Experimental: […] of each of the complexes and artemisinin crystals were separately shaken in 25 ml of water maintained at room temperature (25° C.) for five days. The solution was then filtered through a 0.2 μu membrane filter and suitably diluted before analysis. An analysis of the drug concentration in the solution was determined by high performance liquid chromatography using a method reported by Chan et al (1997).

C[C@@H]1CC[C@H]2[C@@H](C)C(=O)O[C@@H]3O[C@@]4(C)CC[C@@H]1[C@]32OO4 [artemisinin crystals, artemisinin]
solubility at 5 days: 55.7 ± 1.75 µg/mL (≈ 197 µM)

Reference: patent US20020147177A1, “Formulation of artemisinin” (priority 2001, published 2002)
